≈ marks a conversion by molar mass, not a printed value.
Tests used:
Format in all cases: functional
Pseudomonas aeruginosa [1] = test: Increase in ampC gene expression in mexCD-oprJ overexpressing Pseudomonas aeruginosa 164M1-94C harboring p26PAD1 plasmid containing ampD gene by RT-PCR relative to wild-type
Pseudomonas aeruginosa [2] = test: Antibacterial activity against Pseudomonas aeruginosa 164
Pseudomonas aeruginosa [3] = test: Antibacterial activity against Pseudomonas aeruginosa 164M1
Pseudomonas aeruginosa [4] = test: Antibacterial activity against Pseudomonas aeruginosa 164M1-94C overexpressing mexCD-oprJ genes
Pseudomonas aeruginosa [5] = test: Antibacterial activity against Pseudomonas aeruginosa 164M1-84C overexpressing mexCD-oprJ genes
Pseudomonas aeruginosa [6] = test: Antibacterial activity against Pseudomonas aeruginosa 164M1 harboring p26PAD1 plasmid containing ampD gene
Pseudomonas aeruginosa [7] = test: Antibacterial activity against mexCD-oprJ overexpressing Pseudomonas aeruginosa 164M1-94C harboring p26PAD1 plasmid containing ampD gene
Pseudomonas aeruginosa [8] = test: Antibacterial activity against mexCD-oprJ overexpressing Pseudomonas aeruginosa 164M1-84C harboring p26PAD1 plasmid containing ampD gene
Pseudomonas aeruginosa [9] = test: Increase in ampC gene expression in Pseudomonas aeruginosa 164M1 by RT-PCR relative to wild-type
Pseudomonas aeruginosa [10] = test: Increase in ampD gene expression in Pseudomonas aeruginosa 164M1 by RT-PCR relative to wild-type
Pseudomonas aeruginosa [11] = test: Increase in ampDh2 gene expression in Pseudomonas aeruginosa 164M1 by RT-PCR relative to wild-type
Pseudomonas aeruginosa [12] = test: Increase in ampDh3 gene expression in Pseudomonas aeruginosa 164M1 by RT-PCR relative to wild-type
Pseudomonas aeruginosa [13] = test: Increase in ampC gene expression in Pseudomonas aeruginosa 164M1-94C overexpressing mexCD-oprJ genes by RT-PCR relative to wild-type
Pseudomonas aeruginosa [14] = test: Increase in ampD gene expression in Pseudomonas aeruginosa 164M1-94C overexpressing mexCD-oprJ genes by RT-PCR relative to wild-type
Pseudomonas aeruginosa [15] = test: Increase in ampDh2 gene expression in Pseudomonas aeruginosa 164M1-94C overexpressing mexCD-oprJ genes by RT-PCR relative to wild-type
Pseudomonas aeruginosa [16] = test: Increase in ampDh3 gene expression in Pseudomonas aeruginosa 164M1-94C overexpressing mexCD-oprJ genes by RT-PCR relative to wild-type
Pseudomonas aeruginosa [17] = test: Increase in ampC gene expression in Pseudomonas aeruginosa 164M1-84C overexpressing mexCD-oprJ genes by RT-PCR relative to wild-type
Pseudomonas aeruginosa [18] = test: Increase in ampD gene expression in Pseudomonas aeruginosa 164M1-84C overexpressing mexCD-oprJ genes by RT-PCR relative to wild-type
Pseudomonas aeruginosa [19] = test: Increase in ampDh2 gene expression in Pseudomonas aeruginosa 164M1-84C overexpressing mexCD-oprJ genes by RT-PCR relative to wild-type
Pseudomonas aeruginosa [20] = test: Increase in ampDh3 gene expression in Pseudomonas aeruginosa 164M1-84C overexpressing mexCD-oprJ genes by RT-PCR relative to wild-type
Pseudomonas aeruginosa [21] = test: Increase in ampC gene expression in Pseudomonas aeruginosa 164M1 harboring p26PAD1 plasmid containing ampD gene by RT-PCR relative to wild-type

Compound: CC(C)(O/N=C(\C(=O)N[C@@H]1C(=O)N2C(C(=O)[O-])=C(C[n+]3ccccc3)CS[C@H]12)c1csc(N)n1)C(=O)O [CEFTAZIDIME]
- fold change (FC) (Pseudomonas aeruginosa [1]): 0.91
- MIC (Pseudomonas aeruginosa [2]): 2 µg/mL (≈ 3.66 µM)
- MIC (Pseudomonas aeruginosa [3]): 96 µg/mL (≈ 176 µM)
- MIC (Pseudomonas aeruginosa [4]): 48 µg/mL (≈ 87.8 µM)
- MIC (Pseudomonas aeruginosa [5]): 48 µg/mL (≈ 87.8 µM)
- MIC (Pseudomonas aeruginosa [6]): 4 µg/mL (≈ 7.32 µM)
- MIC (Pseudomonas aeruginosa [7]): 2 µg/mL (≈ 3.66 µM)
- MIC (Pseudomonas aeruginosa [8]): 2 µg/mL (≈ 3.66 µM)
- fold change (FC) (Pseudomonas aeruginosa [9]): 99
- fold change (FC) (Pseudomonas aeruginosa [10]): 1.3
- fold change (FC) (Pseudomonas aeruginosa [11]): 2.6
- fold change (FC) (Pseudomonas aeruginosa [12]): 2.1
- fold change (FC) (Pseudomonas aeruginosa [13]): 1165
- fold change (FC) (Pseudomonas aeruginosa [14]): 1.1
- fold change (FC) (Pseudomonas aeruginosa [15]): 2.6
- fold change (FC) (Pseudomonas aeruginosa [16]): 3.1
- fold change (FC) (Pseudomonas aeruginosa [17]): 1324
- fold change (FC) (Pseudomonas aeruginosa [18]): 1.2
- fold change (FC) (Pseudomonas aeruginosa [19]): 1.5
- fold change (FC) (Pseudomonas aeruginosa [20]): 1.6
- fold change (FC) (Pseudomonas aeruginosa [21]): 1.1

From ChEMBL document CHEMBL1155152, “Increased expression of ampC in Pseudomonas aeruginosa mutants selected with ciprofloxacin” (2007)
